Legend:
Neuraminidase [1] = target: T1, Neuraminidase (Influenza A virus, UniProt B4URF0); assay: Inhibition of Influenza A virus (A/Indonesia/5/2005(H5N1)) […] recombinant neuraminidase using 2'-(4-methylumbelliferyl)-alpha-D-N-acetylneuraminic acid as substrate after 1 hr by fluorescence assay
Neuraminidase [2] = target: T1, Neuraminidase; assay: Inhibition of Influenza A virus (A/Sydney/5/97(H3N2)) recombinant neuraminidase using 2'-(4- methylumbelliferyl)-alpha-D-N-acetylneuraminic acid as substrate after 1 hr by fluorescence assay; parameters: species or system Influenza A virus (A/Sydney/5/1997(H3N2))
Influenza A virus [3] = assay: Antiviral activity against Influenza A virus (A/Indonesia/5/2005(H5N1)) […] infected in MDCK cells assessed as protective rate against virus-induced cytopathic effect at 5 uM after 2 days by neutral red uptake assay; format: functional
Influenza A virus [4] = assay: Antiviral activity against Influenza A virus (A/Indonesia/5/2005(H5N1)) […] infected in MDCK cells assessed as protective rate against virus-induced cytopathic effect at 4 uM after 2 days by neutral red uptake assay; format: functional
[5] = Clearance in Sprague-Dawley rat at 2 mg/kg, iv; format: ADME, organism-based; parameters: dose 2 mg/kg, route intravenous; conditions: in vivo
[6] = Volume of distribution in Sprague-Dawley rat at 2 mg/kg, iv; format: ADME, organism-based; parameters: dose 2 mg/kg, route intravenous; conditions: in vivo
in vivo [7] = conditions: Sprague-Dawley, rat, iv, 2 mg/kg
in vivo [8] = conditions: Sprague-Dawley, rat, po, 10 mg/kg
in vivo [9] = conditions: Sprague-Dawley, rat, po, 10 mg/kg; remark: listed apart in the source
in vivo [10] = conditions: Sprague-Dawley, rat, plasma, po, 10 mg/kg
in vivo [11] = conditions: Sprague-Dawley, rat, plasma, iv, 10 mg/kg

T1 sequence (B4URF0 whole entry): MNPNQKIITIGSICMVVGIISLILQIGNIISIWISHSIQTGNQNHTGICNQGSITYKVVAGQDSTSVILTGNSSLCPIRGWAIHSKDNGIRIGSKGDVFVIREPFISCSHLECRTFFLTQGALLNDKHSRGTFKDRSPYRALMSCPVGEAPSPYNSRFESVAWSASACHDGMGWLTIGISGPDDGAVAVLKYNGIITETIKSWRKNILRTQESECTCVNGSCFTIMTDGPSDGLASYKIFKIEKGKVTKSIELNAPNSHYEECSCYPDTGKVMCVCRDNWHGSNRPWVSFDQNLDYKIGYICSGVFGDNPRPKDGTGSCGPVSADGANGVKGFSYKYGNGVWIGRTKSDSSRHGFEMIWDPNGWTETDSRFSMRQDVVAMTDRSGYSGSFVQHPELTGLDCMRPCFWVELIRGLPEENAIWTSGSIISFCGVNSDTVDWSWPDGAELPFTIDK

| Compound | IC50 (Neuraminidase [1]) [µM] | IC50 (Neuraminidase [2]) [µM] | Activity (Influenza A virus [3]) [%] | Activity (Influenza A virus [4]) [%] | further results |
| --- | --- | --- | --- | --- | --- |
| CC(=O)N[C@H]1[C@H]([C@H](O)[C@H](O)CO)OC(C(=O)O)=C[C@@H]1N1CCN(c2ccccc2)CC1 | 761 | 836 |  |  |  |
| COc1cccc(NC(=S)N[C@H]2C=C(C(=O)O)O[C@@H]([C@H](O)[C@H](O)CO)[C@@H]2NC(C)=O)c1 | > 1000 | > 1000 | 0 |  |  |
| CC(=O)N[C@H]1[C@H]([C@H](O)[C@H](O)CO)OC(C(=O)O)=C[C@@H]1NC(=S)NCCCl | 67.2 | 100 |  | 20.3 |  |
| CC(=O)N[C@H]1[C@H]([C@H](O)[C@H](O)CO)OC(C(=O)O)=C[C@@H]1NC(=O)N[C@@H](Cc1ccccc1)C(=O)O | > 1000 | 629 |  | 0 |  |
| CC(=O)N[C@H]1[C@H]([C@H](O)[C@H](O)CO)OC(C(=O)O)=C[C@@H]1NC(=N)N [ZANAMIVIR] |  |  | 67.2 |  | clearance [5]: 1.42 mL/min/kg; Vd [6]: 0.03 L/kg; half-life (in vivo [7]): 24 min; half-life (in vivo [8]): 15 min; bioavailability (in vivo [9]): 2.7% |
| CC(=O)N[C@H]1[C@H]([C@H](O)[C@H](O)CO)OC(C(=O)O)=C[C@@H]1NC(=O)N[C@H](C(=O)O)C(C)C | 917 | 54.4 |  | 0 |  |
| CC(=O)N[C@H]1[C@H]([C@H](O)[C@H](O)CO)OC(C(=O)O)=C[C@@H]1NC(=O)N[C@@H](CCC(N)=O)C(=O)O | 103 | 58.1 |  |  |  |
| COc1ccccc1NC(=S)N[C@H]1C=C(C(=O)O)O[C@@H]([C@H](O)[C@H](O)CO)[C@@H]1NC(C)=O | 578 | 89.6 | 11.7 |  |  |
| CC(=O)N[C@H]1[C@H]([C@H](O)[C@H](O)CO)OC(C(=O)O)=C[C@@H]1NC(=S)Nc1cccc(C(F)(F)F)c1 | > 1000 | > 1000 | 0 |  |  |
| COc1ccc(NC(=O)N[C@H]2C=C(C(=O)O)O[C@@H]([C@H](O)[C@H](O)CO)[C@@H]2NC(C)=O)cc1 | 910 | 848 | 6.9 |  |  |
| CC(=O)N[C@H]1[C@H]([C@H](O)[C@H](O)CO)OC(C(=O)O)=C[C@@H]1NC(=S)Nc1ccccc1 | > 1000 | > 1000 | 13.6 |  |  |
| CC(=O)N[C@H]1[C@H]([C@H](O)[C@H](O)CO)OC(C(=O)O)=C[C@@H]1N1CCC2(CC1)OCCO2 | 738 | 511 |  | 0 |  |
| CC(=O)N[C@H]1[C@H]([C@H](O)[C@H](O)CO)OC(C(=O)O)=C[C@@H]1NC(=O)N[C@H](CC(N)=O)C(=O)O | 77.3 | 22.3 |  |  |  |
| CC(=O)N[C@H]1[C@H]([C@H](O)[C@H](O)CO)OC(C(=O)O)=C[C@@H]1NC(=S)Nc1ccc(C(F)(F)F)cc1 | > 1000 | 894 | 34.4 |  |  |
| CC(=O)N[C@H]1[C@H]([C@H](O)[C@H](O)CO)OC(C(=O)O)=C[C@@H]1NC(=O)NCc1ccco1 | 38.4 | 6.6 | 58 |  | AUC(0-t) (in vivo [10]): 381 ng·h/mL; AUC(0-t) (in vivo [11]): 14000 ng·h/mL; half-life (in vivo [8]): 340 min; bioavailability (in vivo [9]): 2.73% |
| CC(=O)N[C@H]1[C@H]([C@H](O)[C@H](O)CO)OC(C(=O)O)=C[C@@H]1N1CCN(c2cccc(C(F)(F)F)c2)CC1 | 122 | 271 |  |  |  |
| CC(=O)N[C@H]1[C@H]([C@H](O)[C@H](O)CO)OC(C(=O)O)=C[C@@H]1N1CCCC(C(=O)O)C1 (some centres undefined) | 532 | 496 |  |  |  |
| CC(=O)N[C@H]1[C@H]([C@H](O)[C@H](O)CO)OC(C(=O)O)=C[C@@H]1NC(=O)N[C@H](C(=O)O)[C@@H](C)O | 392 | 488 |  | 0 |  |
| CC(=O)N[C@H]1[C@H]([C@H](O)[C@H](O)CO)OC(C(=O)O)=C[C@@H]1NC(=O)N[C@@H](C)C(=O)O | 690 | 663 |  | 0 |  |

| Compound | IC50 (Neuraminidase [1]) [µM] | IC50 (Neuraminidase [2]) [µM] | Activity (Influenza A virus [3]) [%] | Activity (Influenza A virus [4]) [%] | further results |
| --- | --- | --- | --- | --- | --- |
| CC(=O)N[C@H]1[C@H]([C@H](O)[C@H](O)CO)OC(C(=O)O)=C[C@@H]1N1CCOCC1 | 517 | 567 |  | 26.8 |  |
| CC(=O)N[C@H]1[C@H]([C@H](O)[C@H](O)CO)OC(C(=O)O)=C[C@@H]1NC(=S)Nc1cccc2ccccc12 | 901 | 674 | 0 |  |  |
| CCNC(=S)N[C@H]1C=C(C(=O)O)O[C@@H]([C@H](O)[C@H](O)CO)[C@@H]1NC(C)=O | 298 | 612 |  | 27.8 |  |
| CC(=O)N[C@H]1[C@H]([C@H](O)[C@H](O)CO)OC(C(=O)O)=C[C@@H]1NC(=O)NCc1ccccc1 | > 1000 | 705 |  |  |  |
| CC(=O)N[C@H]1[C@H]([C@H](O)[C@H](O)CO)OC(C(=O)O)=C[C@@H]1NC(=O)NCC(=O)NCC(=O)O | 70.4 | 68.5 |  | 37.1 |  |
| CC(=O)N[C@H]1[C@H]([C@H](O)[C@H](O)CO)OC(C(=O)O)=C[C@@H]1NC(=O)Nc1ccc(C)cc1 | 933 | 777 | 0 |  |  |
| CC(=O)N[C@H]1[C@H]([C@H](O)[C@H](O)CO)OC(C(=O)O)=C[C@@H]1NC(=O)NCC(=O)O | 113 | 530 |  | 6.2 |  |
| CC(=O)N[C@H]1[C@H]([C@H](O)[C@H](O)CO)OC(C(=O)O)=C[C@@H]1NC(=O)N[C@@H](C)C(=O)NCC(=O)O | 126 | 101 |  |  |  |
| CC(=O)N[C@H]1[C@H]([C@H](O)[C@H](O)CO)OC(C(=O)O)=C[C@@H]1NC(=O)N1CCC[C@H]1C(=O)O | > 1000 | 574 |  | 0 |  |
| CC(=O)N[C@H]1[C@H]([C@H](O)[C@H](O)CO)OC(C(=O)O)=C[C@@H]1NC(=O)Nc1ccc(Cl)cc1 | > 1000 | > 1000 | 0 |  |  |
| CC(=O)N[C@H]1[C@H]([C@H](O)[C@H](O)CO)OC(C(=O)O)=C[C@@H]1NC(=S)Nc1ccccc1F | 396 | 57.1 | 14.8 |  |  |
| CC(=O)N[C@H]1[C@H]([C@H](O)[C@H](O)CO)OC(C(=O)O)=C[C@@H]1NC(=S)Nc1ccccc1Br | > 1000 | > 1000 | 2.9 |  |  |
| CCCCNC(=S)N[C@H]1C=C(C(=O)O)O[C@@H]([C@H](O)[C@H](O)CO)[C@@H]1NC(C)=O | 21.4 | 64.5 |  | 32.6 |  |
| CC(=O)N[C@H]1[C@H]([C@H](O)[C@H](O)CO)OC(C(=O)O)=C[C@@H]1NC(=S)NC1CC1 | 295 | 550 |  | 11.3 |  |
| CC(=O)N[C@H]1[C@H]([C@H](O)[C@H](O)CO)OC(C(=O)O)=C(C/C=C/c2ccc(C)cc2)[C@@H]1O |  |  |  |  | Ki (Neuraminidase [1]): 7.3 µM |
| CC(=O)N[C@H]1[C@H]([C@H](O)[C@H](O)CO)OC(C(=O)O)=C[C@@H]1NC(=O)Nc1ccc(F)cc1 | > 1000 | > 1000 | 0 |  |  |
| CSCC[C@H](NC(=O)N[C@H]1C=C(C(=O)O)O[C@@H]([C@H](O)[C@H](O)CO)[C@@H]1NC(C)=O)C(=O)O | 406 | 413 |  | 0 |  |
| CC(=O)N[C@H]1[C@H]([C@H](O)[C@H](O)CO)OC(C(=O)O)=C[C@@H]1NC(=O)N[C@@H](CC(N)=O)C(=O)O | 2.72 | 0.58 |  | 8.7 |  |

Source: ChEMBL document CHEMBL2040838, “Synthesis of C-4-modified zanamivir analogs as neuraminidase inhibitors and their anti-AIV activities” (Eur J Med Chem, 2012)
